Values of other authors in EP3137069B1, “NANOPARTICLE FORMULATION CONTAINING FARNESYLTHIOSALICYLIC ACID (SALIRASIB)” (Pehlivan, Sibel, priority 2014, dated 2015).
In brackets after ≈: the same amount, converted by molar mass.

CC(C)=CCCC(C)=CCCC(C)=CCSc1ccccc1C(=O)O [FTA, Farnesylthiosalicylic acid]
solubility in organic solvents (organic solvents like ethanol, DMSO and dimethylformamide): 20 mg/mL (≈ 55.8 mM)
solubility in water (water): insoluble
